The data set deals with T1, hERG channel (Homo sapiens, UniProt Q12809).
T1 construct: expressed in transfected cells; host or cells: CHO (hERG-CHO), under Geneticin selection
The data set can be described thus: hERG channel inhibition, automated patch clamp (IonWorks HT, hERG-CHO). The class given is cell-based. Conditions: CHO cells expressing hERG, 600 s incubation; for inhibition at 600 s, 1 µM: 1 μM compound, read-out: hERG Channel Inhibition % (at 1 μM), vehicle-subtracted values; for inhibition at 600 s, 10 µM: 10 μM compound, read-out: hERG Channel Inhibition % (at 10 μM), vehicle-subtracted values. The method, boiled down: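 hERG-CHO cells held at 30 °C for 48 h before IonWorks HT patch clamp: from −80 mV to +40 for 2 s, then −50 mV for 2 s tail, repeated three times, before and after 600 s compound exposure. Third-pulse post/pre tail amplitude ratio gave percent inhibition; cells with seal <50 MOhm or tail <250 pA excluded.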
In general terms: Block of hERG is tested as a sign of cardiac risk.

Bounds are passed on as bounds.

T1 sequence (Q12809 whole entry): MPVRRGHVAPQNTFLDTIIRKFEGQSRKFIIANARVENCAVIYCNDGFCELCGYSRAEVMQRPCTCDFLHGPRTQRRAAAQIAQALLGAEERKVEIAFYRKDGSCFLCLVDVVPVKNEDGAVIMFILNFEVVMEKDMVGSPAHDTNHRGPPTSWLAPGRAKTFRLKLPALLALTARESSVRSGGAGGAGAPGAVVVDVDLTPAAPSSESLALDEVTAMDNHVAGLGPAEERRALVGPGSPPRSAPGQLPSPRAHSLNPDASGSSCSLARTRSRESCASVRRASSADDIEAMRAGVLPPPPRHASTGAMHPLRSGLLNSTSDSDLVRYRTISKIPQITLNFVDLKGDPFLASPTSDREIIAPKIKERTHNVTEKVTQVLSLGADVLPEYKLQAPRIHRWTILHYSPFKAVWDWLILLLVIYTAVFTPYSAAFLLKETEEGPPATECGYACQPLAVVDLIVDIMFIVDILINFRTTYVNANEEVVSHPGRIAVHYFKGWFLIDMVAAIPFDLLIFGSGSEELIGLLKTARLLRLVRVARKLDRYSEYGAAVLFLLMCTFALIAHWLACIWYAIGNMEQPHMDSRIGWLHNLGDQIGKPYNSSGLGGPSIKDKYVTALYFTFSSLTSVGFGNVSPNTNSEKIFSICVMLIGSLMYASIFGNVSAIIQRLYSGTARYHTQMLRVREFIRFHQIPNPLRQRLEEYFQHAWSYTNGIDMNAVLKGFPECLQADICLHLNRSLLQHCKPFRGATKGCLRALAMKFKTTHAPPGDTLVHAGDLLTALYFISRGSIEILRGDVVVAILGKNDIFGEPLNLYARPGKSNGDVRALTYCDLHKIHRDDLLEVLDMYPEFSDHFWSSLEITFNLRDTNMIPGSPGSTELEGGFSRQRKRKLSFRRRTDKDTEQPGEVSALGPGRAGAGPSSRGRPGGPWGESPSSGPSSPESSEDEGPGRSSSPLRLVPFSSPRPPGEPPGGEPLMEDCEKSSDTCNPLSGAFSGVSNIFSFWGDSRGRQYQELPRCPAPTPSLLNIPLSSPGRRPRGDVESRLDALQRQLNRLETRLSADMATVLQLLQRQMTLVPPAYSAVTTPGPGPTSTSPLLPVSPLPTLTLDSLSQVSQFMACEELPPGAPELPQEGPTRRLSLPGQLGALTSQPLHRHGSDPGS

As to `COc1cc(NC(=O)C(=O)c2c(C)n(Cc3ccc(Cl)cc3Cl)c3cc(F)c(OC)cc23)ccn1` [Compound 92, 2-(1-(2,4-dichlorobenzyl)-6-fluoro-5-methoxy-2-methyl-1H-indol-3-yl)-N-(2-methoxypyridin-4-yl)-2-oxoacetamide], the inhibition at 600 s, 1 µM is below 25% and the inhibition at 600 s, 10 µM is below 25%.
As for `COc1ccc2c(c1)c(C(=O)C(=O)Nc1ccnc(OC)c1)c(C)n2Cc1cccnc1` [Compound 78, 2-(5-methoxy-2-methyl-1-(pyridin-3-ylmethyl)-1H-indol-3-yl)-N-(2-methoxypyridin-4-yl)-2-oxoacetamide], the inhibition at 600 s, 1 µM was below 25% and the inhibition at 600 s, 10 µM is 25 to 50%.
In the case of `COc1cc(NC(=O)C(=O)c2c(C)n(Cc3ccc(Cl)cn3)c3cc(F)c(C)cc23)ccn1` [Compound 90, 2-(1-((5-chloropyridin-2-yl)methyl)-6-fluoro-2,5-dimethyl-1H-indol-3-yl)-N-(2-methoxypyridin-4-yl)-2-oxoacetamide], the inhibition at 600 s, 1 µM was below 25% and the inhibition at 600 s, 10 µM is below 25%.
With `COc1cc(NC(=O)C(=O)c2c(C)n(Cc3ccc(Cl)cn3)c3cc(Cl)c(C)cc23)ccn1` [Compound 94, 2-(6-chloro-1-((5-chloropyridin-2-yl)methyl)-2,5-dimethyl-1H-indol-3-yl)-N-(2-methoxypyridin-4-yl)-2-oxoacetamide], the inhibition at 600 s, 1 µM is below 25% and the inhibition at 600 s, 10 µM was below 25%.
On to `COc1cc(NC(=O)C(=O)c2c(C)n(Cc3ccc(F)cn3)c3ccc(C)cc23)ccn1` [Compound 85, 2-(1-((5-fluoropyridin-2-yl)methyl)-2,5-dimethyl-1H-indol-3-yl)-N-(2-methoxypyridin-4-yl)-2-oxoacetamide], for which the inhibition at 600 s, 1 µM was below 25% and the inhibition at 600 s, 10 µM is 25 to 50%.
As for `COc1ccc2c(c1)c(C(=O)C(=O)Nc1ccnc(OC)c1)c(C)n2Cc1ccc(C)cn1` [Compound 84, 2-(5-methoxy-2-methyl-1-((5-methylpyridin-2-yl)methyl)-1H-indol-3-yl)-N-(2-methoxypyridin-4-yl)-2-oxoacetamide], the inhibition at 600 s, 1 µM is below 25% and the inhibition at 600 s, 10 µM was below 25%.
Consider `COc1cc(NC(=O)C(=O)c2c(C)n(Cc3ccc(Cl)cc3)c3cc(Cl)c(C)cc23)ccn1` [Compound 93, 2-(6-chloro-1-(4-chlorobenzyl)-2,5-dimethyl-1H-indol-3-yl)-N-(2-methoxypyridin-4-yl)-2-oxoacetamide], for which the inhibition at 600 s, 1 µM is below 25% and the inhibition at 600 s, 10 µM is below 25%.
`COc1cc(NC(=O)C(=O)c2c(C)n(Cc3ccc(Cl)cc3)c3cc(F)c(C)cc23)ccn1` [Compound 89, 2-(1-(4-chlorobenzyl)-6-fluoro-2,5-dimethyl-1H-indol-3-yl)-N-(2-methoxypyridin-4-yl)-2-oxoacetamide]: the inhibition at 600 s, 1 µM was below 25% and the inhibition at 600 s, 10 µM is below 25%.
As to `COc1ccc2c(c1)c(C(=O)C(=O)Nc1ccnc(OC)c1)c(C)n2Cc1ncc(Cl)cc1Cl` [Compound 82, 2-(1-((3,5-dichloropyridin-2-yl)methyl)-5-methoxy-2-methyl-1H-indol-3-yl)-N-(2-methoxypyridin-4-yl)-2-oxoacetamide], the inhibition at 600 s, 1 µM was below 25% and the inhibition at 600 s, 10 µM was below 25%.
`COc1ccc2c(c1)c(C(=O)C(=O)Nc1ccnc(OC)c1)c(C)n2Cc1ccc(Cl)cn1` [Compound 79, 2-(1-((5-chloropyridin-2-yl)methyl)-5-methoxy-2-methyl-1H-indol-3-yl)-N-(2-methoxypyridin-4-yl)-2-oxoacetamide]: the inhibition at 600 s, 1 µM was below 25% and the inhibition at 600 s, 10 µM was below 25%.
As for `COc1ccc2c(c1)c(C(=O)C(=O)Nc1ccnc(OC)c1)c(C)n2Cc1ncc(Cl)cc1F` [Compound 87, 2-(1-((5-chloro-3-fluoropyridin-2-yl)methyl)-5-methoxy-2-methyl-1H-indol-3-yl)-N-(2-methoxypyridin-4-yl)-2-oxoacetamide], the inhibition at 600 s, 1 µM was below 25% and the inhibition at 600 s, 10 µM was below 25%.
Take `COc1cc(NC(=O)C(=O)c2c(C)n(Cc3ccc(Cl)cc3)c3cc(OC)c(Cl)cc23)ccn1` [Compound 80, 2-(5-chloro-1-(4-chlorobenzyl)-6-methoxy-2-methyl-1H-indol-3-yl)-N-(2-methoxypyridin-4-yl)-2-oxoacetamide]: the inhibition at 600 s, 1 µM was below 25% and the inhibition at 600 s, 10 µM was below 25%.
Regarding `COc1ccc2c(c1)c(C(=O)C(=O)Nc1ccnc(OC)c1)c(C)n2Cc1ncc(F)cc1F` [Compound 81, 2-(1-((3,5-difluoropyridin-2-yl)methyl)-5-methoxy-2-methyl-1H-indol-3-yl)-N-(2-methoxypyridin-4-yl)-2-oxoacetamide], the inhibition at 600 s, 1 µM was below 25% and the inhibition at 600 s, 10 µM is below 25%.
In the case of `COc1cc(NC(=O)C(=O)c2c(C)n(Cc3ccc(Cl)cc3)c3cccnc23)ccn1` [Compound 3, 2-(1-(4-chlorobenzyl)-2-methyl-1H-pyrrolo[3,2-b]pyridin-3-yl)-N-(2-methoxypyridin-4-yl)-2-oxoacetamide], the inhibition at 600 s, 1 µM was below 25% and the inhibition at 600 s, 10 µM lay within 25 to 50%.

As usually defined, the inhibition is the change of the read-out against control, counted positive when it falls.

These data come from patent US20150175599A1, “FAAH Inhibitors” (Ironwood Pharmaceuticals, Inc., priority 2010, published 2015).
